Here are results for 14 compounds from patent US20100003246A1, “Novel heterocyclic compounds and uses therof” (priority 2008, published 2010).

As usually defined, the IC50 is the point on the concentration scale where inhibition reaches its midpoint.

The target of this test is T1, b-Raf(V600E) (Homo sapiens, UniProt P15056, V600E).
T1 construct: made in house
T1 sequence (P15056 whole entry V600E): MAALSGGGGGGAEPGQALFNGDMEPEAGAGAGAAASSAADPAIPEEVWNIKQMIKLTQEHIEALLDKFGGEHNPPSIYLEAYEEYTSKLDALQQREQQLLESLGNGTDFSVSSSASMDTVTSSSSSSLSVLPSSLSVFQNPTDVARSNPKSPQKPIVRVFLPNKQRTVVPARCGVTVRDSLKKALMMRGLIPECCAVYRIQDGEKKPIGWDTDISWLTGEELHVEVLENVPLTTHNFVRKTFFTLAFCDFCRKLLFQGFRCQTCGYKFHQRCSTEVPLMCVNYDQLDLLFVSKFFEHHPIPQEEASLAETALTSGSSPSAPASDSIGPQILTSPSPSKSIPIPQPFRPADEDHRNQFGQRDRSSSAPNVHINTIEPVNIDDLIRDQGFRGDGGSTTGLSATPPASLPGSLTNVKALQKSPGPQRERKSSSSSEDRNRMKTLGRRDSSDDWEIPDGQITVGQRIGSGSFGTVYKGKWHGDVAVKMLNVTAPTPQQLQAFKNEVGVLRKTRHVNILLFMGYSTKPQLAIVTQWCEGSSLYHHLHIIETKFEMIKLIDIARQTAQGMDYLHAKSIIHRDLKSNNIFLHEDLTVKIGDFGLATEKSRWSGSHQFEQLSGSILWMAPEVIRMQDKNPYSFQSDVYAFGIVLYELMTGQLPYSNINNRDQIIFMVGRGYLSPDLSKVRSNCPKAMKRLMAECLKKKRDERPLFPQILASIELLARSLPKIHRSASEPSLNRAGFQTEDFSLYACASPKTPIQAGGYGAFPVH
The test is described as follows: Raf/Mek Amplified Luminescence Proximity Homogeneous Assay (Alpha Screen), b-Raf(V600E). The format is biochemical. The conditions noted are these: mutant b-Raf(V600E), read-out: mut-b-RAF (IC50 in uM). Put shortly: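 IC50 derived by non-linear regression from AlphaScreen luminescence of phospho-MEK (anti-p-MEK antibody). Reaction: ~4 pM b-Raf(V600E), ~10 nM kinase-dead biotinylated Mek, 60 min compound pre-incubation, then 3 h with ATP at room temperature in pH 7.5 Tris/MgCl2/DTT buffer, quenched with EDTA.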
As for `COCC(=O)N[C@@H](C)CNc1nccc(-c2oc(-c3ccc(F)cc3)nc2-c2cnc(N)c(OC)n2)n1` [Compound 217, (S)-N-(1-(4-(4-(5-amino-6-methoxypyrazin-2-yl)-2-(4-fluorophenyl)oxazol-5-yl)pyrimidin-2-ylamino)propan-2-yl)-2-methoxyacetamide], the IC50 came out at 2 nM.
Then `COc1cccc(Nc2nccc(-c3[nH]c(-c4ccc(F)cc4)nc3-c3cnc(N)c(OC)c3)n2)c1` [Compound 153, 4-(4-(6-amino-5-methoxypyridin-3-yl)-2-(4-fluorophenyl)-1H-imidazol-5-yl)-N-(3-methoxyphenyl)pyrimidin-2-amine], with 0.2 nM.
For `CCNc1nccc(-c2nc(-c3ccc(F)cc3)[nH]c2-c2cnc(N)c(OC)c2)n1` [Compound 174, 4-(5-(6-amino-5-methoxypyridin-3-yl)-2-(4-fluorophenyl)-1H-imidazol-4-yl)-N-ethylpyrimidin-2-amine] the value was 2.3 nM; for `COc1cc(-c2[nH]c(C)nc2-c2ccncc2)cnc1N` [Compound 51, 3-methoxy-5-(2-methyl-4-(pyridin-4-yl)-1H-imidazol-5-yl)pyridin-2-amine], 19.6 nM; for `Nc1ncc(-c2[nH]c(-c3ccccc3)nc2-c2ccncc2)cc1Cl` [Compound 46, 3-chloro-5-(2-phenyl-4-(pyridin-4-yl)-1H-imidazol-5-yl)pyridin-2-amine], 28.7 nM.
Take `CCOC(=O)N[C@@H](C)CNc1nccc(-c2[nH]c(C(C)(C)C)nc2-c2nc(OC)c(N)nc2C)n1` [Compound 256, (S)-ethyl 1-(4-(4-(5-amino-6-methoxy-3-methylpyrazin-2-yl)-2-tert-butyl-1H-imidazol-5-yl)pyrimidin-2-ylamino)propan-2-ylcarbamate]: the IC50 was found to be 1.1 nM.
Then `CC(=O)c1cc(-c2[nH]c(-c3ccc(F)cc3)nc2-c2ccncc2)cnc1N` [Compound 177, 1-(2-amino-5-(2-(4-fluorophenyl)-4-(pyridin-4-yl)-1H-imidazol-5-yl)pyridin-3-yl)ethanone], with 3 nM.
As for `COc1cc(-c2nc(-c3ccccc3)[nH]c2-c2ccncc2)cnc1N` [Example 1, 3-Methoxy-5-(2-phenyl-5-(pyridine-4-yl)-1H-imidazol-4-yl)pyridine-2-amine], the IC50 amounted to 1 nM.
Then `Cc1n[nH]c2ccc(-c3[nH]c(-c4ccccc4)nc3-c3ccncc3)cc12` [Compound 35, 3-methyl-5-(2-phenyl-4-(pyridin-4-yl)-1H-imidazol-5-yl)-1H-indazole], with 99 nM.
Then `COc1ccc(Cl)cc1-c1nc(-c2ccncc2)c(-c2cnc(N)c(OC)c2)[nH]1` [Compound 133, 5-(2-(5-chloro-2-methoxyphenyl)-4-(pyridin-4-yl)-1H-imidazol-5-yl)-3-methoxypyridin-2-amine], with 0.5 nM.
On to `COCC(=O)N1CCC[C@@H](Nc2nccc(-c3nc(-c4ccc(F)cc4)[nH]c3-c3cnc(N)c(OC)c3)n2)C1` [Compound 100, (R)-1-(3-(4-(5-(6-amino-5-methoxypyridin-3-yl)-2-(4-fluorophenyl)-1H-imidazol-4-yl)pyrimidin-2-ylamino)piperidin-1-yl)-2-methoxyethanone], for which the IC50 was determined as 25.9 nM.
In the case of `COc1cc(-c2nc(C(C)C)[nH]c2-c2ccncc2)cnc1N` [Compound 140, 5-(2-isopropyl-5-(pyridin-4-yl)-1H-imidazol-4-yl)-3-methoxypyridin-2-amine], the IC50 came to 1.6 nM.
As to `COC(=O)N[C@@H](C)CNc1nccc(-c2[nH]c(C3(C)CC3)nc2-c2cnc(N)c(OC)n2)n1` [Compound 251, (S)-methyl 1-(4-(4-(5-amino-6-methoxypyrazin-2-yl)-2-(1-methylcyclopropyl)-1H-imidazol-5-yl)pyrimidin-2-ylamino)propan-2-ylcarbamate], the IC50 was determined as 0.04 nM.
Consider `COc1cc(-c2nc(-c3ccccc3)[nH]c2-c2ccnc(N(C)C)n2)cnc1N` [Compound 63, 4-(4-(6-amino-5-methoxypyridin-3-yl)-2-phenyl-1H-imidazol-5-yl)-N,N-dimethylpyrimidin-2-amine], for which the IC50 worked out at 641 nM.
